Assay [1] has as its system EGFR Del19/T790M/C797S (H1975-clone #28). The assay can be described thus: EGFR degradation HTRF assay, H1975-clone #28 DTC cells. Type of assay: cell-based. The conditions noted are these: H1975 # 28 DTC cells; for DC50: EGFR degradation, IC50 (DC50) from curve fit, read-out: DC50(nM) H1975 # 28 DTC; for Dmax (%) H1975 # 28 DTC: maximum percentage of inhibition (degradation). In outline: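 Compounds (top 10 uM, 5-fold, 8 points, 0.2% DMSO) incubated 16 h at 37 °C on homozygous clones: #23 Del19/C797S, #28 Del19/T790M/C797S, exogenous EGFR only in H1975. HTRF on lysates quantified remaining EGFR relative to DMSO; four-parameter fit gave DC50 and Dmax.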
(In general: Time-resolved FRET reads energy transfer from a long-lived donor to a nearby acceptor.)

Assay [2] deals with T1, EGFR L858R/T790M/C797S (BaF3-LTC cells) (Homo sapiens, UniProt P00533, C797S/L858R/T790M).
T1 construct: expressed in transfected cells; host or cells: BaF3
T1 sequence (P00533 25-1210 T790M/C797S/L858R): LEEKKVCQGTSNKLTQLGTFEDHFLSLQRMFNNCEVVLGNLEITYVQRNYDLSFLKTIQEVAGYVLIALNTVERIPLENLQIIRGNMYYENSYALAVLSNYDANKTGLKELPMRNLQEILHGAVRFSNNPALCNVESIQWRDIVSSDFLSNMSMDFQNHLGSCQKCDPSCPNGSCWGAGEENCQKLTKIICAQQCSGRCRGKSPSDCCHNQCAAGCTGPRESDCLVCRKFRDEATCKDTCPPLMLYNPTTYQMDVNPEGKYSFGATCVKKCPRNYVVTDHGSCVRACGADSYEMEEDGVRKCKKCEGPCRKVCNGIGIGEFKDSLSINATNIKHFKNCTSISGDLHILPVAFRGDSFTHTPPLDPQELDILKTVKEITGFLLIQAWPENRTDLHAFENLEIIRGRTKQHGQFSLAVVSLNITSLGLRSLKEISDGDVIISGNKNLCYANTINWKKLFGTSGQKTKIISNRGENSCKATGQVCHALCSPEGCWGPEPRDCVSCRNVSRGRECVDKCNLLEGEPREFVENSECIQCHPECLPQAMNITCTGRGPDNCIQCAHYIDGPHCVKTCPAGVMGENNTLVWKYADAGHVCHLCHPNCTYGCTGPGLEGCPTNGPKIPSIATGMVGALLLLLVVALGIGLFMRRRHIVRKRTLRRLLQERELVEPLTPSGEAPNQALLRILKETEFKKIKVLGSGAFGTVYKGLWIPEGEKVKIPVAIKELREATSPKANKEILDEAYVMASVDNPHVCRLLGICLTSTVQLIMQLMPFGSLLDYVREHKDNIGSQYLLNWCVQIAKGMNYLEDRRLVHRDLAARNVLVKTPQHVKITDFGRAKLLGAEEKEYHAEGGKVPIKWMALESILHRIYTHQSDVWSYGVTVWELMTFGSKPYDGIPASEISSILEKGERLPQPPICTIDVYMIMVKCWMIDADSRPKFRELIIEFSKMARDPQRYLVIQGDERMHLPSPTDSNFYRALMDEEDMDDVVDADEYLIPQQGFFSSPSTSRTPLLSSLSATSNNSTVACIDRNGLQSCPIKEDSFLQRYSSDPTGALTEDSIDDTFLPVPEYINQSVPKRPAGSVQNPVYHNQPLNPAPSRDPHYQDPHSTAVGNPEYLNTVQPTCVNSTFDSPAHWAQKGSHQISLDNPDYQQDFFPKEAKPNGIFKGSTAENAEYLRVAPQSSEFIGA
The assay can be described thus: EGFR degradation HTRF assay, BaF3-LTC cells. Type of assay: cell-based. The conditions noted are these: BaF3-LTC cells; for DC50: EGFR degradation, IC50 (DC50) from curve fit, read-out: DC50(nM) BaF3-LTC; for Dmax: read-out: Dmax (%) BaF3-LTC. In short, it runs like this:
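Cells treated 16 h at 37 °C, 5% CO2 in medium with 0.2% DMSO; top final concentration 10 uM, 5-fold dilution, 8 doses. Lysates read by HTRF (665/620 nm); degradation % versus DMSO high control, DC50 from four-parameter fit, Dmax as maximal degradation.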

Where [3] appears, read: maximum percentage of inhibition (degradation).

One may read the DC50 as the concentration at which degradation of the target reaches its halfway point. The term Dmax denotes the largest share of the target that was removed. As to `CCOc1cc(N2CCC(N3CCN(CCc4cc(F)c([C@H]5CCC(=O)NC5=O)c(F)c4)CC3)CC2)c(CC)cc1Nc1ncc(Br)c(Nc2ccc3nc(CC)c(F)cc3c2P(C)(C)=O)n1` [Example 588, (R)-3-(4-(2-(4-(1-(4-((5-bromo-4-((5-(dimethylphosphoryl)-2-ethyl-3-fluoroquinolin-6-yl)amino)pyrimidin-2-yl)amino)-5-ethoxy-2-ethylphenyl)piperidin-4-yl)piperazin-1-yl)ethyl)-2,6-difluorophenyl)piperidine-2,6-dione], the values for the DC50 in assay [1] and in assay [2] were 1.94 nM and 18.4 nM, respectively. Further, the “Dmax (%) H1975 # 28 DTC” value in assay [1] is reported as 84.46%. Further, in assay [2] (setting [3]), the Dmax was determined as 87.5%.

As for `CCOc1cc(N2CCC(N3CCN(CC4CN(c5cc(F)c([C@H]6CCC(=O)NC6=O)c(F)c5)C4)CC3)CC2)c(CC)cc1Nc1ncc(Br)c(Nc2ccc3nc(CC)ncc3c2P(C)(C)=O)n1` [Example 590, (R)-3-(4-(3-((4-(1-(4-((5-bromo-4-((5-(dimethylphosphoryl)-2-ethylquinazolin-6-yl)amino)pyrimidin-2-yl)amino)-5-ethoxy-2-ethylphenyl)piperidin-4-yl)piperazin-1-yl)methyl)azetidin-1-yl)-2,6-difluorophenyl)piperidine-2,6-dione], in assay [1], the half-maximal degradation concentration (DC50) came to 0.697 nM and the “Dmax (%) H1975 # 28 DTC” value is 87.82%. Besides, in assay [2], the DC50 is 11.8 nM. For the same molecule, the Dmax in assay [2] (setting [3]) came out at 91.7%.

Regarding `CCOc1cc(N2CCC(N3CCN(CCc4cc(F)c([C@H]5CCC(=O)NC5=O)c(F)c4)CC3)CC2)c(CC)cc1Nc1nccc(Nc2cc(F)c3nc(CC)ccc3c2P(C)(C)=O)n1` [Example 591, (R)-3-(4-(2-(4-(1-(4-((4-((5-(dimethylphosphoryl)-2-ethyl-8-fluoroquinolin-6-yl)amino)pyrimidin-2-yl)amino)-5-ethoxy-2-ethylphenyl)piperidin-4-yl)piperazin-1-yl)ethyl)-2,6-difluorophenyl)piperidine-2,6-dione], in assay [1], the DC50 stood at 1.57 nM and the “Dmax (%) H1975 # 28 DTC” value turned out to be 75.79%. Besides, the DC50 in assay [2] worked out at 72.7 nM. In assay [2] (setting [3]), the Dmax is 75%.

For the molecule `CCOc1cc(N2CCC(N3CCN(CCc4ccc(F)c5c4oc(=O)n5C4CCC(=O)NC4=O)CC3)CC2)c(CC)cc1Nc1ncc(Br)c(Nc2cc(F)c3nc(CC)ccc3c2P(C)(C)=O)n1` (stereo not drawn) [Example 592, 3-(7-(2-(4-(1-(4-((5-bromo-4-((5-(dimethylphosphoryl)-2-ethyl-8-fluoroquinolin-6-yl)amino)pyrimidin-2-yl)amino)-5-ethoxy-2-ethylphenyl)piperidin-4-yl)piperazin-1-yl)ethyl)-4-fluoro-2-oxobenzo[d]oxazol-3(2H)-yl)piperidine-2,6-dione], in assay [1], the DC50 is 1.18 nM and the “Dmax (%) H1975 # 28 DTC” value turned out to be 82.2%. For the same molecule, the DC50 in assay [2] was 12.5 nM. Also, the Dmax in assay [2] (setting [3]) turned out to be 83.7%.

`CCOc1cc(N2CCC(N3CCN(CCc4c(C)c(F)cc5c4oc(=O)n5C4CCC(=O)NC4=O)CC3)CC2)c(CC)cc1Nc1ncc(Br)c(Nc2cc(F)c3nc(CC)ccc3c2P(C)(C)=O)n1` (stereo not drawn) [Example 593, 3-(7-(2-(4-(1-(4-((5-bromo-4-((5-(dimethylphosphoryl)-2-ethyl-8-fluoroquinolin-6-yl)amino)pyrimidin-2-yl)amino)-5-ethoxy-2-ethylphenyl)piperidin-4-yl)piperazin-1-yl)ethyl)-5-fluoro-6-methyl-2-oxobenzo[d]oxazol-3(2H)-yl)piperidine-2,6-dione]: the figures for the DC50 in assay [1] and in assay [2] were 1.26 nM and 13.2 nM, respectively. In addition, the “Dmax (%) H1975 # 28 DTC” value in assay [1] turned out to be 76.9%. In assay [2] (setting [3]), the Dmax worked out at 82.6%.

`CCOc1cc(N2CCC(N3CCN(CCc4ccc(F)c5c4n(CC)c(=O)n5C4CCC(=O)NC4=O)CC3)CC2)c(CC)cc1Nc1ncc(Br)c(Nc2ccc3c(=O)n(CC)ncc3c2P(C)(C)=O)n1` (stereo not drawn) [Example 594, 3-(4-(2-(4-(1-(4-((5-bromo-4-((5-(dimethylphosphoryl)-2-ethyl-1-oxo-1,2-dihydrophthalazin-6-yl)amino)pyrimidin-2-yl)amino)-5-ethoxy-2-ethylphenyl)piperidin-4-yl)piperazin-1-yl)ethyl)-3-ethyl-7-fluoro-2-oxo-2,3-dihydro-1H-benzo[d]imidazol-1-yl)piperidine-2,6-dione]: the results for the DC50 in assay [1] and in assay [2] were 0.818 nM and 17 nM, respectively. The “Dmax (%) H1975 # 28 DTC” value in assay [1] was 85.75%. Also, in assay [2] (setting [3]), the greatest degradation seen (Dmax) was 85.5%.

Consider `CCOc1cc(N2CCC(N3CCN(CCc4c(F)ccc5c4oc(=O)n5C4CCC(=O)NC4=O)CC3)CC2)c(CC)cc1Nc1ncc(Br)c(Nc2cc(F)c3nc(CC)ccc3c2P(C)(C)=O)n1` (stereo not drawn) [Example 595, 3-(7-(2-(4-(1-(4-((5-bromo-4-((5-(dimethylphosphoryl)-2-ethyl-8-fluoroquinolin-6-yl)amino)pyrimidin-2-yl)amino)-5-ethoxy-2-ethylphenyl)piperidin-4-yl)piperazin-1-yl)ethyl)-6-fluoro-2-oxobenzo[d]oxazol-3(2H)-yl)piperidine-2,6-dione], for which, in assay [1], the DC50 amounted to 1.02 nM and the “Dmax (%) H1975 # 28 DTC” value is 72.7%. In addition, the DC50 in assay [2] worked out at 16.1 nM. In assay [2] (setting [3]), the Dmax is 82%.

`CCOc1cc(N2CCC(N3CCN(CCc4c(F)ccc5c4n(CC)c(=O)n5C4CCC(=O)NC4=O)CC3)CC2)c(CC)cc1Nc1ncc(Br)c(Nc2ccc3c(=O)n(CC)ncc3c2P(C)(C)=O)n1` (stereo not drawn) [Example 596, 3-(4-(2-(4-(1-(4-((5-bromo-4-((5-(dimethylphosphoryl)-2-ethyl-1-oxo-1,2-dihydrophthalazin-6-yl)amino)pyrimidin-2-yl)amino)-5-ethoxy-2-ethylphenyl)piperidin-4-yl)piperazin-1-yl)ethyl)-3-ethyl-5-fluoro-2-oxo-2,3-dihydro-1H-benzo[d]imidazol-1-yl)piperidine-2,6-dione]: in assay [1], the DC50 came to 0.937 nM and the “Dmax (%) H1975 # 28 DTC” value was 84.17%. Also, in assay [2], the DC50 came out at 6.56 nM. For the same molecule, the “Dmax (%) BaF3-LTC” value in assay [2] (setting [3]) is recorded as 91.42%.

In the case of `CCOc1cc(N2CCC(N3CCN(CCCc4cc(OC)cc5c4oc(=O)n5C4CCC(=O)NC4=O)CC3)CC2)c(CC)cc1Nc1ncc(Br)c(Nc2ccc3nc(CC)ccc3c2P(C)(C)=O)n1` (stereo not drawn) [Example 597, 3-(7-(3-(4-(1-(4-((5-bromo-4-((5-(dimethylphosphoryl)-2-ethylquinolin-6-yl)amino)pyrimidin-2-yl)amino)-5-ethoxy-2-ethylphenyl)piperidin-4-yl)piperazin-1-yl)propyl)-5-methoxy-2-oxobenzo[d]oxazol-3(2H)-yl)piperidine-2,6-dione], in assay [1], the DC50 turned out to be 1.59 nM and the “Dmax (%) H1975 # 28 DTC” value worked out at 75.93%. In assay [2], the DC50 turned out to be 28.2 nM. Moreover, the Dmax in assay [2] (setting [3]) came to 90.1%.

For `CCOc1cc(N2CCC(N3CCN(CCCc4cc(OC)cc5c4oc(=O)n5C4CCC(=O)NC4=O)CC3)CC2)c(CC)cc1Nc1ncc(Br)c(Nc2ccc3c(=O)n(CC)ncc3c2P(C)(C)=O)n1` (stereo not drawn) [Example 598, 3-(7-(3-(4-(1-(4-((5-bromo-4-((5-(dimethylphosphoryl)-2-ethyl-1-oxo-1,2-dihydrophthalazin-6-yl)amino)pyrimidin-2-yl)amino)-5-ethoxy-2-ethylphenyl)piperidin-4-yl)piperazin-1-yl)propyl)-5-methoxy-2-oxobenzo[d]oxazol-3(2H)-yl)piperidine-2,6-dione], in assay [1], the DC50 is 1.64 nM and the “Dmax (%) H1975 # 28 DTC” value is recorded as 81.26%. Besides, the DC50 in assay [2] was found to be 18.8 nM. The Dmax in assay [2] (setting [3]) was 88.4%.

Take `CCOc1cc(N2CCC(N3CCN(CCc4cc(Cl)cc5c4oc(=O)n5C4CCC(=O)NC4=O)CC3)CC2)c(CC)cc1Nc1ncc(Br)c(Nc2ccc3c(=O)n(CC)ncc3c2P(C)(C)=O)n1` (stereo not drawn) [Example 599, 3-(7-(2-(4-(1-(4-((5-bromo-4-((5-(dimethylphosphoryl)-2-ethyl-1-oxo-1,2-dihydrophthalazin-6-yl)amino)pyrimidin-2-yl)amino)-5-ethoxy-2-ethylphenyl)piperidin-4-yl)piperazin-1-yl)ethyl)-5-chloro-2-oxobenzo[d]oxazol-3(2H)-yl)piperidine-2,6-dione]: in assay [1], the DC50 was found to be 1.91 nM and the “Dmax (%) H1975 # 28 DTC” value worked out at 80.53%. Moreover, in assay [2], the DC50 is 25 nM. For the same molecule, the maximal degradation (Dmax) in assay [2] (setting [3]) was determined as 73.9%.

For `CCc1cc(Nc2ncc(Br)c(Nc3ccc4nc(C)ccc4c3P(C)(C)=O)n2)c(OC2CC2)cc1N1CCC(N2CCN(CC3CN(c4cccc5c4oc(=O)n5C4CCC(=O)NC4=O)C3)CC2)CC1` (stereo not drawn) [Example 600, 3-(7-(3-((4-(1-(4-((5-bromo-4-((5-(dimethylphosphoryl)-2-methylquinolin-6-yl)amino)pyrimidin-2-yl)amino)-5-cyclopropoxy-2-ethylphenyl)piperidin-4-yl)piperazin-1-yl)methyl)azetidin-1-yl)-2-oxobenzo[d]oxazol-3(2H)-yl)piperidine-2,6-dione], in assay [1], the DC50 worked out at 1.18 nM and the “Dmax (%) H1975 # 28 DTC” value was 83.32%. Also, in assay [2], the 50% degradation concentration (DC50) worked out at 4.11 nM. The Dmax in assay [2] (setting [3]) came to 87.4%.

The values above are taken from US20230265116A1, “DEGRADATION OF (EGFR) BY CONJUGATION OF EGFR INHIBITORS WITH E3 LIGASE LIGAND AND METHODS OF USE” (BEIGENE, LTD., priority 2020, published 2023).
